Assay results as given in PubChem BioAssay (NCI).
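Tested at 5 concentrations; 48 h exposure; 96-well plates; endpoints linearly interpolated, else capped at highest concentration. GI50 is the concentration that inhibits growth by half. TGI marks complete inhibition of growth.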

Tests used:
Assay in all cases: inhibition of tumour cell growth, NCI panel, 48 h
MALME-3M melanoma = test system: MALME-3M melanoma
UACC-257 melanoma = test system: UACC-257 melanoma
UO-31 renal = test system: UO-31 renal
SNB-75 CNS = test system: SNB-75 CNS
DU-145 prostate = test system: DU-145 prostate
A549 NSCLC = test system: A549 NSCLC
786-0 renal = test system: 786-0 renal
PC-3 prostate = test system: PC-3 prostate
SK-MEL-28 melanoma = test system: SK-MEL-28 melanoma
SK-OV-3 ovarian = test system: SK-OV-3 ovarian

Row | Compound | TGI (MALME-3M melanoma) | TGI (UACC-257 melanoma) | TGI (UO-31 renal) | TGI (SNB-75 CNS) | TGI (DU-145 prostate) | TGI (A549 NSCLC) | TGI (786-0 renal) | TGI (PC-3 prostate) | TGI (SK-MEL-28 melanoma) | TGI (SK-OV-3 ovarian) | GI50 (UACC-257 melanoma) | GI50 (UO-31 renal) | GI50 (SNB-75 CNS) | GI50 (DU-145 prostate) | GI50 (A549 NSCLC) | GI50 (786-0 renal) | GI50 (PC-3 prostate) | GI50 (SK-OV-3 ovarian) | GI50 (SK-MEL-28 melanoma) | GI50 (MALME-3M melanoma)
1 | [N-]=[N+]=Nc1cc(=O)n2c3c(cccc13)CCC2 | > 100 µM | > 100 µM | > 100 µM | > 100 µM | > 100 µM | > 100 µM | > 100 µM | > 100 µM | > 100 µM |  |  |  |  |  |  |  |  |  |  | 
2 | CC(C)C(=O)Nc1nc2c(ncn2C2OC(CO)C(O)C2O)c(=O)[nH]1 (centres undefined) | > 100 µM | > 100 µM | > 100 µM | > 100 µM |  | > 100 µM | > 100 µM |  | > 100 µM | > 100 µM |  |  |  |  |  |  |  |  |  | 
3 | CN[C@@H](C)[C@@H](NC)c1ccccc1 |  | > 100 µM | > 100 µM | > 100 µM |  | > 100 µM | > 100 µM |  | > 100 µM | > 100 µM |  |  |  |  |  |  |  |  |  | 
4 | CCCO/S(=N\S(=O)(=O)c1ccccc1)c1ccccc1[N+](=O)[O-] (centres undefined) | > 100 µM | > 100 µM | > 100 µM | > 100 µM |  | > 100 µM | > 100 µM |  | > 100 µM | > 100 µM |  |  |  |  |  |  |  |  |  | 
5 | O=[N+]([O-])c1ccc(N2N=C(c3ccc(NCc4nc5ccccc5[nH]4)cc3)CC2c2ccco2)cc1 (centres undefined) | 66.4 µM |  | 55.4 µM | > 100 µM |  | > 100 µM | > 100 µM |  | > 100 µM | > 100 µM |  |  |  |  |  |  |  |  |  | 
6 | O=S(=O)(c1ccccc1)C1CN2OC1(S(=O)(=O)c1ccccc1)CC2c1ccc(Br)cc1 (centres undefined) | > 100 µM | > 100 µM | > 100 µM | 22.1 µM |  | > 100 µM | > 100 µM |  | > 100 µM | > 100 µM |  |  |  |  |  |  |  |  |  | 
7 | COc1cc(C=O)c(-c2cc(OC)c(OC)cc2C=O)cc1OC | > 100 µM | > 100 µM | > 100 µM | > 100 µM |  | > 100 µM | > 100 µM |  | > 100 µM | > 100 µM |  |  |  |  |  |  |  |  |  | 
8 | N#Cc1c(N/N=C/c2ccc(Cl)cc2Cl)nc(N)nc1N1CCCC1 |  | > 100 µM | > 100 µM | 49.8 µM | > 100 µM | 65 µM | 47.6 µM | 38.4 µM | > 100 µM | > 100 µM | > 100 µM | 32 µM | 6.26 µM | 10.7 µM | 29.6 µM | 19.5 µM | 12.2 µM | 47.8 µM | 37.6 µM | 
9 | O=C1NC(=O)C(c2cccc([N+](=O)[O-])c2)=C1Nc1cc(Cl)c(O)c(Cl)c1 | > 25 µM |  | > 25 µM | > 25 µM | > 25 µM | > 25 µM | > 25 µM | > 25 µM | > 25 µM | > 25 µM |  | > 17.6 µM | 10.7 µM | > 25 µM | > 25 µM | > 23.3 µM | > 25 µM | 12 µM | > 25 µM | > 25 µM
10 | COc1cc2c3c(n(CCCOC(=O)C(F)(F)F)c(=O)c2cc1OC)-c1cc2c(cc1C3=O)OCO2 | > 100 µM |  | > 100 µM | > 100 µM | 1.71 µM |  | < 0.0241 µM | > 100 µM | > 100 µM | > 100 µM |  | < 0.01 µM | 0.0726 µM |  |  | < 0.01 µM | 0.0532 µM |  |  | 0.159 µM
